Read-outs that look alike come from different tables or passages of the source. Numbered stars: 1 amine (or outer) side, 2 acyl side, 3 side chain; on linkers, the order of the positions; unused ones are H or OH. Bridge positions count the residues as written; N and C are the ends. Side chains are listed from the residue outwards. Peptide text beside a SMILES is read from it. * marks the point of attachment. X1 = C/C(=N\O)C(C)(C)NCCC(CCNC(C)(C)/C(C)=N/O)CCN*; Glutaryl = O=C(CCCC(=O)[*:2])[*:1]; X2 = NC(=O)COCC(=O)NCCOCCOCCOCCN*
Assays:
Format in all cases: in vivo
[1] = system: fibrogenic livers in rat BDL model; test: Liver uptake (SUV) in BDL vs sham rats at 2-28 days post-operatively; details: 1 hour after tail vein injection
Description: Outbred male Sprague Dawley rats (180-200 g; Charles River) were used in all bile duct ligation (BDL) and sham studies. […] For the BDL animals, the abdomen was shaved and swabbed with betadine solution followed by 5 mg/kg carprofen subcutaneously (s.c.) and 5 mg/kg bupronorphine s.c. and under Isoflurane anaesthesia a mid-line laparotomy was performed and the common bile duct located. Bile duct was double ligated, the first ligation made between the junction of the hepatic ducts and the second above the entrance of the pancreatic ducts. […] Animals were closely monitored for the duration of the experiment. […] At the appropriate time point post-injection of the test item, each animal was re-anaesthetised with isoflurane, sacrificed by cervical dislocation weighed and the weight recorded via a barcode scanning system. Each animal was dissected and the following organs and tissues were removed and counted using BASIL counter protocol 40 or manual counting: The BDL and sham animal models were set up as described in Example 3. Uptake of Compound 8 was calculated as Standard Uptake Value (SUV) as follows: [formula] • Zs=counts per second in sample • Ws=weight of sample in grams • Z1=total counts per second measured in all the samples (excluding the injection site) • W1=weight of animal in grams […]

BDL fibrogenic liver = test: Biodistribution in BDL rats with and without excess cold compound; details: rat, in vivo
Description: (§1) On the appropriate day post surgery BDL and sham animals were removed and put under isoflurane anaesthesia, then each animal was injected with 0.3 ml intravenously (i.v.) via tail vein (˜3MBq). At the appropriate time point post-injection of the test item, each animal was re-anaesthetised with isoflurane, sacrificed by cervical dislocation weighed and the weight recorded via a barcode scanning system. Each animal was dissected and the following organs and tissues were removed and counted using BASIL counter protocol 40 or manual counting:
(§2) The recorded activity in a whole organ (e.g., liver) was corrected for background radioactivity and for radioactive decay and the biodistribution of radioactivity calculated by reference to Formula I:
(§3) [formula] where: • A=counts per second measured in organ • B=total counts per second measured in all samples (excluding the injection site)
(§4) The percentage of injected radioactivity in the weighed tissue samples (e.g., blood) was calculated to give % i.d. in the entire tissue by reference to Formula 2:
(§5) [formula] where: • Zs=counts per second in sample • Ws=weight of sample in grams • Wb=weight of animal in grams immediately after sacrifice • B=total counts per second measured in all the samples (excluding the injection site) • F=tissue specific factor representing the mass of the tissue as a proportion of the total body weight of the animal
(§6) The biodistribution of radioactivity was investigated in 15 days post-operatively in BDL and sham-operated male Sprague Dawley rats (procedures described in Example 3) 1 hour following of intravenous injection via tail vein of ˜3 MBq of Compound 8, both before and after addition of 1:100 and 1:10,000 fold excess of cold Compound 8. At the appropriate time point post-injection of the test Item, each animal was re-anaesthetised with isoflurane, sacrificed by cervical dislocation and weighed. Each animal was dissected and organs and tissues (see Tables 5 and 6 below) were removed and counted using BASIL counter protocol 40 or manual counting.

[2] = Biodistribution in sham-operated rats with and without excess cold compound; details: male, Sprague Dawley, rat, iv, total radioactivity, 15 days post-op, 1 hour post-injection; for dose excreted at 1 h: bile and urine
Description: as §1, §2, §3, §4, §5, §6

## C/C(=N\O)C(C)(C)NCCC(CCNC(=O)CCCC(=O)NCCCC[C@@H]1NC(=O)CSC[C@@H](C(=O)NCCOCCOCCOCCNC(=O)COCC(N)=O)NC(=O)[C@H](Cc2ccccc2)NC(=O)[C@@H]2CSSC[C@H](NC1=O)C(=O)N[C@@H](CCCNC(=N)N)C(=O)NCC(=O)N[C@@H](CC(=O)O)C(=O)N2)CCNC(C)(C)/C(C)=N/O (some centres unmarked) [Compound 8] ({CH2CO}-K([Glutaryl-X1])CRGDCFC-X2; disulfide 2-6; thioether N-8)
[1]
  Liver uptake in BDL rats (in words): specific uptake
BDL fibrogenic liver
  Binding to BDL fibrogenic liver with excess cold compound (in words): Specifically Inhibited by Cold Compound 8
[2]; +10K-fold excess cold Compound 8
  dose excreted at 1 h: 46.5%
[2]; +100-fold excess cold Compound 8
  dose excreted at 1 h: 43.2%
[2]; no excess
  dose excreted at 1 h: 44.6%
[2]; blood, +10K-fold excess cold Compound 8, read-out: Activity in Blood, Mean
  tissue uptake dose at 1 h: 1.4 %ID
[2]; blood, +100-fold excess cold Compound 8, read-out: Activity in Blood, Mean
  tissue uptake dose at 1 h: 1.37 %ID
[2]; blood, no excess, read-out: Activity in Blood, Mean
  tissue uptake dose at 1 h: 1.55 %ID
[2]; bone, 3 MBq, +10K-fold excess cold Compound 8, read-out: Activity in Bone, Mean
  tissue uptake dose at 1 h: 2.42 %ID
[2]; bone, 3 MBq, +100-fold excess cold Compound 8, read-out: Activity in Bone, Mean
  tissue uptake dose at 1 h: 3.06 %ID
[2]; bone, 3 MBq, no excess, read-out: Activity in Bone, Mean
  tissue uptake dose at 1 h: 3.1 %ID
[2]; carcass, 3 MBq, +10K-fold excess cold Compound 8, read-out: Activity in Carcass, Mean
  tissue uptake dose at 1 h: 11.6 %ID
[2]; carcass, 3 MBq, +100-fold excess cold Compound 8, read-out: Activity in Carcass, Mean
  tissue uptake dose at 1 h: 9.32 %ID
[2]; carcass, 3 MBq, no excess, read-out: Activity in Carcass, Mean
  tissue uptake dose at 1 h: 8.45 %ID
[2]; heart, 3 MBq, +10K-fold excess cold Compound 8, read-out: Activity in Heart, Mean
  tissue uptake dose at 1 h: 0.1 %ID
[2]; heart, 3 MBq, +100-fold excess cold Compound 8, read-out: Activity in Heart, Mean
  tissue uptake dose at 1 h: 0.1 %ID
[2]; heart, 3 MBq, no excess, read-out: Activity in Heart, Mean
  tissue uptake dose at 1 h: 0.12 %ID
[2]; injection site, 3 MBq, +10K-fold excess cold Compound 8, read-out: Activity in Injection Site, Mean
  tissue uptake dose at 1 h: 1.71 %ID
[2]; injection site, 3 MBq, +100-fold excess cold Compound 8, read-out: Activity in Injection Site, Mean
  tissue uptake dose at 1 h: 1.44 %ID
[2]; injection site, 3 MBq, no excess, read-out: Activity in Injection Site, Mean
  tissue uptake dose at 1 h: 1.66 %ID
[2]; kidneys, +10K-fold excess cold Compound 8, read-out: Activity in Kidneys, Mean
  tissue uptake dose at 1 h: 3.65 %ID
[2]; kidneys, +100-fold excess cold Compound 8, read-out: Activity in Kidneys, Mean
  tissue uptake dose at 1 h: 4.13 %ID
[2]; kidneys, no excess, read-out: Activity in Kidneys, Mean
  tissue uptake dose at 1 h: 4.07 %ID
[2]; liver, 3 MBq, +10K-fold excess cold Compound 8, read-out: Activity in Liver, Mean
  tissue uptake dose at 1 h: 3.03 %ID
[2]; liver, 3 MBq, +100-fold excess cold Compound 8, read-out: Activity in Liver, Mean
  tissue uptake dose at 1 h: 3.52 %ID
[2]; liver, 3 MBq, no excess, read-out: Activity in Liver, Mean
  tissue uptake dose at 1 h: 3.71 %ID
[2]; lung, 3 MBq, +10K-fold excess cold Compound 8, read-out: Activity in Lung, Mean
  tissue uptake dose at 1 h: 0.39 %ID
[2]; lung, 3 MBq, +100-fold excess cold Compound 8, read-out: Activity in Lung, Mean
  tissue uptake dose at 1 h: 0.38 %ID
[2]; lung, 3 MBq, no excess, read-out: Activity in Lung, Mean
  tissue uptake dose at 1 h: 0.46 %ID
[2]; muscle, 3 MBq, +100-fold excess cold Compound 8, read-out: Activity in Muscle, Mean
  tissue uptake dose at 1 h: 10.9 %ID
[2]; muscle, 3 MBq, no excess, read-out: Activity in Muscle, Mean
  tissue uptake dose at 1 h: 10.4 %ID
[2]; muscle, +10K-fold excess cold Compound 8, read-out: Activity in Muscle, Mean
  tissue uptake dose at 1 h: 8.41 %ID
[2]; skin, 3 MBq, +10K-fold excess cold Compound 8, read-out: Activity in Skin, Mean
  tissue uptake dose at 1 h: 12.7 %ID
[2]; skin, 3 MBq, +100-fold excess cold Compound 8, read-out: Activity in Skin, Mean
  tissue uptake dose at 1 h: 14 %ID
[2]; skin, 3 MBq, no excess, read-out: Activity in Skin, Mean
  tissue uptake dose at 1 h: 14.4 %ID
[2]; small and large intestine, 3 MBq, +10K-fold excess cold Compound 8, read-out: Activity in Small & Large Intestine, Mean
  tissue uptake dose at 1 h: 7.54 %ID
[2]; small and large intestine, 3 MBq, +100-fold excess cold Compound 8, read-out: Activity in Small & Large Intestine, Mean
  tissue uptake dose at 1 h: 8.42 %ID
[2]; small and large intestine, 3 MBq, no excess, read-out: Activity in Small & Large Intestine, Mean
  tissue uptake dose at 1 h: 7.86 %ID
[2]; spleen, 3 MBq, +10K-fold excess cold Compound 8, read-out: Activity in Spleen, Mean
  tissue uptake dose at 1 h: 0.27 %ID
[2]; spleen, 3 MBq, +100-fold excess cold Compound 8, read-out: Activity in Spleen, Mean
  tissue uptake dose at 1 h: 0.29 %ID
[2]; spleen, 3 MBq, no excess, read-out: Activity in Spleen, Mean
  tissue uptake dose at 1 h: 0.29 %ID
[2]; stomach, 3 MBq, +10K-fold excess cold Compound 8, read-out: Activity in Stomach, Mean
  tissue uptake dose at 1 h: 1.92 %ID
[2]; stomach, 3 MBq, +100-fold excess cold Compound 8, read-out: Activity in Stomach, Mean
  tissue uptake dose at 1 h: 1.21 %ID
[2]; stomach, 3 MBq, no excess, read-out: Activity in Stomach, Mean
  tissue uptake dose at 1 h: 0.9 %ID
[2]; thyroid, 3 MBq, +10K-fold excess cold Compound 8, read-out: Activity in Thyroid, Mean
  tissue uptake dose at 1 h: 0.04 %ID
[2]; thyroid, 3 MBq, +100-fold excess cold Compound 8, read-out: Activity in Thyroid, Mean
  tissue uptake dose at 1 h: 0.05 %ID
[2]; thyroid, 3 MBq, no excess, read-out: Activity in Thyroid, Mean
  tissue uptake dose at 1 h: 0.05 %ID

Source: US8834843B2, “Imaging method” (GE Healthcare Limited, priority 2007, dated 2014)
